Where “and” joins values, the source holds several entries; their conditions need not be identical. Equal entries are not always repeated.
Biological target: T1, catalytic domain of human Bub1 (amino acids 704-1085) (Homo sapiens, UniProt O43683)
T1 construct: catalytic domain of human Bub1 (amino acids 704-1085); His6 (N); made in house; host or cells: insect cells (Hi5)
Assay: Bub1 kinase assay (TR-FRET)
Format: biochemical
Conditions: 10 μM ATP, avg, read-out: Bub1 avg (IC50 [mol/l])
How it was run: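 Readout is the 665/620 nm TR-FRET ratio from anti-phosphoserine antibody, Eu-labelled anti-mouse IgG and streptavidin-XL665, scaled between no-enzyme and uninhibited controls. Reaction: 1 μM biotinylated peptide, 10 μM ATP, 60 min, 22 °C, after 15 min compound preincubation with His6-Bub1 (704-1085, insect-expressed, ~200 ng/ml).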

T1 sequence (O43683 704-1085): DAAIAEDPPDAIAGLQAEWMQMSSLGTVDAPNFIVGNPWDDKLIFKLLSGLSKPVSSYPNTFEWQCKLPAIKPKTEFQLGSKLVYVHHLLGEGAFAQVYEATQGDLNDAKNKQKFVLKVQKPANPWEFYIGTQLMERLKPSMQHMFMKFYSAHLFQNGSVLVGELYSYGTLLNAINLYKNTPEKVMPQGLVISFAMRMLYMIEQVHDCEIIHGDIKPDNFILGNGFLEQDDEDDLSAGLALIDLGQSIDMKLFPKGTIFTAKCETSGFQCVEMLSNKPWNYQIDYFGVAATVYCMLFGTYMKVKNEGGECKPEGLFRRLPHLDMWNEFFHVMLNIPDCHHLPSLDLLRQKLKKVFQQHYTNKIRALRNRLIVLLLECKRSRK

| SMILES | IC50 |
| --- | --- |
| Cc1nsc(Nc2cncc(C(F)(F)F)n2)c1C(=O)Nc1ccc(C(=O)N2CCN(CC(F)(F)F)CC2)cc1 [Example 272, 3-methyl-N-(4-{[4-(2,2,2-trifluoroethyl)piperazin-1-yl]carbonyl}phenyl)-5-{[6-(trifluoromethyl)pyrazin-2-yl]amino}-1,2-thiazole-4-carboxamide] | > 20 µM |
| CCN1CCN(C(=O)c2ccc(NC(=O)c3c(C)nsc3Nc3cncc(C(F)(F)F)n3)cc2)CC1 [Example 275, N-{4-[(4-ethylpiperazin-1-yl)carbonyl]phenyl}-3-methyl-5-{[6-(trifluoromethyl)pyrazin-2-yl]amino}-1,2-thiazole-4-carboxamide] | > 20 µM |
| Cc1nsc(Nc2cnc3ccccc3n2)c1C(=O)Nc1cccc(NS(=O)(=O)C2CCN(CC(F)(F)F)CC2)c1 [Example 281, 3-methyl-5-(quinoxalin-2-ylamino)-N-[3-({[1-(2,2,2-trifluoroethyl)piperidin-4-yl]sulfonyl}amino)phenyl]-1,2-thiazole-4-carboxamide] | > 20 µM |
| Cc1nsc(Nc2cnc3ccccc3n2)c1C(=O)Nc1cccc(NS(=O)(=O)C2CCN(CC(F)F)CC2)c1 [Example 282, N-[3-({[1-(2,2-difluoroethyl)piperidin-4-yl]sulfonyl}amino)phenyl]-3-methyl-5-(quinoxalin-2-ylamino)-1,2-thiazole-4-carboxamide] | > 20 µM |
| Cc1nsc(Nc2cnc3ccccc3n2)c1C(=O)Nc1cccc(NS(=O)(=O)C2CCN(CCC(F)(F)F)CC2)c1 [Example 283, 3-methyl-5-(quinoxalin-2-ylamino)-N-[3-({[1-(3,3,3-trifluoropropyl)piperidin-4-yl]sulfonyl}amino)phenyl]-1,2-thiazole-4-carboxamide] | > 20 µM |
| Cc1nsc(Nc2cnc3ccccc3n2)c1C(=O)Nc1cccc(NS(=O)(=O)C2CN(CC(F)(F)F)C2)c1 [Example 285, 3-methyl-5-(quinoxalin-2-ylamino)-N-[3-({[1-(2,2,2-trifluoroethyl)azetidin-3-yl]sulfonyl}amino)phenyl]-1,2-thiazole-4-carboxamide] | > 20 µM |
| Cc1nsc(Nc2cnc3ccccc3n2)c1C(=O)Nc1cccc(NS(=O)(=O)C2CN(CC(F)F)C2)c1 [Example 286, N-[3-({[1-(2,2-difluoroethyl)azetidin-3-yl]sulfonyl}amino)phenyl]-3-methyl-5-(quinoxalin-2-ylamino)-1,2-thiazole-4-carboxamide] | > 20 µM |
| Cc1nsc(Nc2cnc3ccccc3n2)c1C(=O)Nc1cccc(NS(=O)(=O)C2CN(CCF)C2)c1 [Example 287, N-[3-({[1-(2-fluoroethyl)azetidin-3-yl]sulfonyl}amino)phenyl]-3-methyl-5-(quinoxalin-2-ylamino)-1,2-thiazole-4-carboxamide] | > 20 µM |
| Cc1nsc(Nc2cnc3ccccc3n2)c1C(=O)Nc1cccc(NS(=O)(=O)C2CN(CCC(F)(F)F)C2)c1 [Example 288, 3-methyl-5-(quinoxalin-2-ylamino)-N-[3-({[1-(3,3,3-trifluoropropyl)azetidin-3-yl]sulfonyl}amino)phenyl]-1,2-thiazole-4-carboxamide] | > 20 µM |
| Cc1nsc(Nc2cnc3ccccc3n2)c1C(=O)Nc1cccc(NS(=O)(=O)C2CCN(CC(F)(F)F)C2)c1 (centres unmarked) [Example 289, 3-methyl-5-(quinoxalin-2-ylamino)-N-[3-({[1-(2,2,2-trifluoroethyl)pyrrolidin-3-yl]sulfonyl}amino)phenyl]-1,2-thiazole-4-carboxamide] | > 20 µM |
| Cc1nsc(Nc2cnc3ccccc3n2)c1C(=O)Nc1cccc(NS(=O)(=O)C2CCN(C(=O)OC(C)(C)C)C2)c1 (centres unmarked) [Example 290, tert-butyl 3-{[3-({[3-methyl-5-(quinoxalin-2-ylamino)-1,2-thiazol-4-yl]carbonyl}amino)phenyl]sulfamoyl} pyrrolidine-1-carboxylate] | > 20 µM |
| Cc1nsc(Nc2cnc3ccccc3n2)c1C(=O)Nc1cccc(NS(=O)(=O)C2CCCN(C(=O)OCc3ccccc3)C2)c1 (centres unmarked) [Example 291, benzyl 3-{[3-({[3-methyl-5-(quinoxalin-2-ylamino)-1,2-thiazol-4-yl]carbonyl}amino)phenyl]sulfamoyl} piperidine-1-carboxylate] | > 20 µM |

Further lines, results first:

| IC50 | SMILES |
| --- | --- |
| > 20 µM | Cc1nsc(Nc2cnc(C(F)(F)F)cn2)c1C(=O)Nc1ccc(C(=O)NC2CN(CC(F)F)C2)cc1 [Example 271, N-(4-{[1-(2,2-difluoroethyl)azetidin-3-yl]carbamoyl}phenyl)-3-methyl-5-{[5-(trifluoromethyl)pyrazin-2-yl]amino}-1,2-thiazole-4-carboxamide] |
| > 20 µM | Cc1nsc(Nc2cncc(C(F)(F)F)n2)c1C(=O)Nc1ccc(C(=O)N2CCN(CC(F)F)CC2)cc1 [Example 273, N-(4-{[4-(2,2-difluoroethyl)piperazin-1-yl]carbonyl}phenyl)-3-methyl-5-{[6-(trifluoromethyl)pyrazin-2-yl]amino}-1,2-thiazole-4-carboxamide] |
| > 20 µM | Cc1nsc(Nc2cncc(C(F)(F)F)n2)c1C(=O)Nc1ccc(C(=O)N2CCN(CCF)CC2)cc1 [Example 274, N-(4-{[4-(2-fluoroethyl)piperazin-1-yl]carbonyl}phenyl)-3-methyl-5-{[6-(trifluoromethyl)pyrazin-2-yl]amino}-1,2-thiazole-4-carboxamide] |
| > 20 µM | Cc1nsc(Nc2cncc(C(F)(F)F)n2)c1C(=O)Nc1ccc(OCCO)nc1 [Example 276, N-[6-(2-hydroxyethoxy)pyridin-3-yl]-3-methyl-5-{[6-(trifluoromethyl)pyrazin-2-yl]amino}-1,2-thiazole-4-carboxamide] |
| > 20 µM and 18 µM | Cc1nsc(Nc2cnc(C(F)(F)F)cn2)c1C(=O)Nc1ccc(OCCO)nc1 [Example 277, N-[6-(2-hydroxyethoxy)pyridin-3-yl]-3-methyl-5-{[5-(trifluoromethyl)pyrazin-2-yl]amino}-1,2-thiazole-4-carboxamide] |
| > 20 µM | Cc1nsc(Nc2cncc(C(F)(F)F)n2)c1C(=O)Nc1ccc(OCCCO)nc1 [Example 278, N-[6-(3-hydroxypropoxy)pyridin-3-yl]-3-methyl-5-{[6-(trifluoromethyl)pyrazin-2-yl]amino}-1,2-thiazole-4-carboxamide] |
| > 20 µM and 19 µM | Cc1nsc(Nc2cnc(C(F)(F)F)cn2)c1C(=O)Nc1ccc(OCCCO)nc1 [Example 279, N-[6-(3-hydroxypropoxy)pyridin-3-yl]-3-methyl-5-{[5-(trifluoromethyl)pyrazin-2-yl]amino}-1,2-thiazole-4-carboxamide] |
| > 20 µM | Cc1nsc(Nc2cncc(C(F)(F)F)n2)c1C(=O)Nc1ccc(C(=O)NC2CN(CC(F)(F)F)C2)cc1 [Example 280, 3-methyl-N-(4-{[1-(2,2,2-trifluoroethyl)azetidin-3-yl]carbamoyl}phenyl)-5-{[6-(trifluoromethyl)pyrazin-2-yl]amino}-1,2-thiazole-4-carboxamide] |
| > 20 µM | Cc1nsc(Nc2cnc(C(F)(F)F)cn2)c1C(=O)Nc1cccc(NC(=O)OC(C)(C)C)c1 [Example 284, 3-tert-butyl (3-{[(3-methyl-5-{[5-(trifluoromethyl)pyrazin-2-yl]amino}-1,2-thiazol-4-yl)carbonyl]amino}phenyl)carbamate] |
| > 20 µM | Cc1nsc(Nc2cnc(C(F)(F)F)cn2)c1C(=O)Nc1ccc(OCCCNCC(F)(F)F)nc1 [Example 292, 3-methyl-N-(6-{3-[(2,2,2-trifluoroethyl)amino]propoxy}pyridin-3-yl)-5-{[5-(trifluoromethyl)pyrazin-2-yl]amino}-1,2-thiazole-4-carboxamide] |
| > 20 µM | Cc1nsc(Nc2cnc(C(F)(F)F)cn2)c1C(=O)Nc1ccc(OCCCNCC(F)F)nc1 [Example 293, N-(6-{3-[(2,2-difluoroethyl)amino]propoxy}pyridin-3-yl)-3-methyl-5-{[5-(trifluoromethyl)pyrazin-2-yl]amino}-1,2-thiazole-4-carboxamide] |
| > 20 µM | Cc1nsc(Nc2cnc(C(F)(F)F)cn2)c1C(=O)Nc1ccc(OCCCNCCC(F)(F)F)nc1 [Example 294, 3-methyl-5-{[5-(trifluoromethyl)pyrazin-2-yl]amino}-N-(6-{3-[(3,3,3-trifluoropropyl)amino]propoxy}pyridin-3-yl)-1,2-thiazole-4-carboxamide] |
| > 20 µM | Cc1nsc(Nc2cnc(C(F)(F)F)cn2)c1C(=O)Nc1ccc(OC2CCN(CCF)C2)nc1 (centres unmarked) [Example 295, N-(6-{[1-(2-fluoroethyl)pyrrolidin-3-yl]oxy}pyridin-3-yl)-3-methyl-5-{[5-(trifluoromethyl)pyrazin-2-yl]amino}-1,2-thiazole-4-carboxamide] |
| > 20 µM | Cc1nsc(Nc2cnc(C(F)(F)F)cn2)c1C(=O)Nc1ccc(OC2CCN(CC(F)F)C2)nc1 (centres unmarked) [Example 296, N-(6-{[1-(2,2-difluoroethyl)pyrrolidin-3-yl]oxy}pyridin-3-yl)-3-methyl-5-{[5-(trifluoromethyl)pyrazin-2-yl]amino}-1,2-thiazole-4-carboxamide] |
| > 20 µM | Cc1nsc(Nc2cnc(C(F)(F)F)cn2)c1C(=O)Nc1ccc(OC2CCN(CC(F)(F)F)C2)nc1 (centres unmarked) [Example 297, 3-methyl-N-(6-{[1-(2,2,2-trifluoroethyl)pyrrolidin-3-yl]oxy}pyridin-3-yl)-5-{[5-(trifluoromethyl)pyrazin-2-yl]amino}-1,2-thiazole-4-carboxamide] |
| > 20 µM | Cc1nsc(Nc2cnc(C(F)(F)F)cn2)c1C(=O)Nc1ccc(OC2CCN(CCC(F)(F)F)C2)nc1 (centres unmarked) [Example 298, 3-methyl-5-{[5-(trifluoromethyl)pyrazin-2-yl]amino}-N-(6-{[1-(3,3,3-trifluoropropyl)pyrrolidin-3-yl]oxy}pyridin-3-yl)-1,2-thiazole-4-carboxamide] |
| > 20 µM | Cc1nsc(Nc2cnc(C(F)(F)F)cn2)c1C(=O)Nc1ccc(N(C)C)c(OCCCN(C)CC(F)(F)F)c1 [Example 299, N-[4-(dimethylamino)-3-{3-[methyl(2,2,2-trifluoroethyl)amino]propoxy}phenyl]-3-methyl-5-{[5-(trifluoromethyl)pyrazin-2-yl]amino}-1,2-thiazole-4-carboxamide] |

Reference: US20170334899A1, “AMINO-SUBSTITUTED ISOTHIAZOLES” (Bayer Pharma Aktiengesellschaft, priority 2014, published 2017)
